Test results as given in patent US9822068B2, “Inhibitors of fatty acid amide hydrolase (FAAH) enzyme with improved oral bioavailability and their use as medicaments” (THE REGENTS OF THE UNIVERSITY OF CALIFORNIA, priority 2014, dated 2017).
Values after ≈ are worked out from the molar mass of the structure shown. Read-outs that look alike come from different tables or passages of the source.

Key:
human FAAH-1 = human FAAH-1 (Homo sapiens (Human), UniProt O00519); test: In vitro human FAAH fluorescent assay; format: biochemical; settings: human FAAH-1 membrane preparation from HEK-293, 50 min pre-incubation at 37° C.; read-out: h-FAAH IC50
Chain of human FAAH-1 (O00519 whole entry): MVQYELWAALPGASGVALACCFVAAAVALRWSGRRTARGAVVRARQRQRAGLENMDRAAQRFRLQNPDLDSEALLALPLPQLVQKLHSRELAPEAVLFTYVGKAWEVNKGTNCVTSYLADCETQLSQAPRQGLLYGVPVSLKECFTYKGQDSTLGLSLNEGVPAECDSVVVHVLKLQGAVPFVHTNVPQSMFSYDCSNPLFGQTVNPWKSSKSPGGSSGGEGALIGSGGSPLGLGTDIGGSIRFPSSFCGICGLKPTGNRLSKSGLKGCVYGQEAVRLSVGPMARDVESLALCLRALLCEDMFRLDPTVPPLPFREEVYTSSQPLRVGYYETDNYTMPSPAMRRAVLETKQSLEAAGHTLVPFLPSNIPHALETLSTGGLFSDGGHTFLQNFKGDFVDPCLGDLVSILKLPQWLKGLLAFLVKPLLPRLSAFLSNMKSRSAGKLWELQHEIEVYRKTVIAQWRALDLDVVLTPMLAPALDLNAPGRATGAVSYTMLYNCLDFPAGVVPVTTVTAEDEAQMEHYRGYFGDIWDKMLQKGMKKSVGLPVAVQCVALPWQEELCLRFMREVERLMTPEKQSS
Protocol: In Vitro Human FAAH Fluorescent Assay
Human recombinant FAAH was obtained from a HEK-293 cell line stably overexpressing human FAAH-1 enzyme. Cells were grown in Dulbecco's Modified Eagle Medium (DMEM) medium containing 10% FBS, 1% pen/strep, 1% glutamine and 500 μg/mL G418. To obtain membrane preparation cells were scraped off with cold PBS and collected by centrifugation (500×g, 10 min, 4° C.); the cell pellet was re-suspended in 20 mM Tris-HCl pH 7.4, 0.32M sucrose, disrupted by sonication (10 pulses, 5 times) and centrifuged (800×g, 15 min, 4° C.); the collected supernatant was centrifuged at 105,000×g for 1 h at 4° C. and the pellet was re-suspended in PBS.
The fluorescent assay to measure FAAH activity was performed in 96 wells black plates: 2.5 μg of human FAAH-1 membrane preparation were pre-incubated for 50 min at 37° C., in 180 µL of assay buffer (50 mM TrisHCl pH 7.4, 0.05% Fatty acid-free-BSA) with 10 μL of inhibitor (at appropriate concentration in DMSO) or 10 μL DMSO to measure FAAH total activity. The background (no activity) samples were prepared using 180 μL of assay buffer without human FAAH-1 and 10 μL of DMSO. The reaction was then started by the addition of 10 μL of a 40 μM substrate solution (N. 10005098, Cayman Chemical) dissolved in ethanol, and used at a final concentration of 2 μM. The reaction was carried out for 30 min at 37° C. and fluorescence was measured with a Tecan Infinite M200 nanoquant plate reader (excitation wavelength 350 nm/emission wavelength 460 nm).
(§1) Concentrations causing half-maximal inhibition of FAAH, IC50 values, were determined by non-linear regression analysis of the Log [concentration]/response curves generated with mean replicate values using a four parameter Hill equation curve fitting with GraphPad Prism 5 (GraphPad Software Inc., CA—USA).

[1] = Pharmacokinetic experiment in cannulated Sprague-Dawley rats (PO and IV); format: in vivo; settings: plasma, rat; for bioavailability: PO 10 mg/kg vs IV 3 mg/kg, read-out: Oral bioavailability (F %)
Protocol: Pharmacokinetic Experiment and Analysis
Compounds were administered orally (PO) and intravenously (IV) to cannulated Sprague-Dawley rats at 10 and 3 mg/kg, respectively. Vehicle was: PEG400/Tween 80/Saline solution at 10/10/80 (% in volume), respectively. Three animals per dose were treated. Blood samples at 0, 15, 30, 60, 120, 240, 480 and 1440 min after administration were collected for PO arm. Blood samples at 0, 5, 15, 30, 60, 120 and 240 min after administration were collected for IV arm. Plasma was separated from blood by centrifugation for 15 min at 3500 rpm a 4° C., collected in a Eppendorf tube and frozen (−80° C.). Control animals treated with vehicle only were also included in the experimental protocol.
Preparation of Samples, Standard Curve and QC Samples for UPLC-MS Analysis
Samples were thawed in an ice bath and after a short centrifugation transferred (50 μL) into a 96-deepwell plate and added with 150 μL of acetonitrile spiked with 200 nM Warfarin (the Internal Standard, I.S.). After agitation (3 min) the plate was centrifuged at 3000 g for 10 min at 4° C. 80 μL of supernatant was then transferred in a 96-well plate and added with 80 μL of water. Standard compound was spiked in neat solvent (PBS pH 7.4 added with 10% acetonitrile) to prepare a calibration curve over the 1 nM-10 μM range. Three quality controls (QCs) samples were also prepared spiking the compound in blank rat plasma to final 20, 200 and 2000 nM concentrations. Calibrators and QCs were crashed with acetonitrile spiked with the I.S. as described for the plasma samples. Dosing solutions, previously diluted 2000 fold in the neat solvent were also included in the samples and tested.
Compounds plasma levels were monitored on a Xevo TQ UPLC-MS/MS system (Waters, Milford USA), using the calibration curve and the internal standard (Warfarin). Chromatography was carried out on a Acquity BEH C18 column (2.1×50 mmID, 1.7 m particle size, Waters, Milford USA). Flow rate was 0.5 mL/min. The mobile phase was (A) H2O/0.1% formic acid; (B) MeCN/0.1% formic acid. A linear gradient was applied from 5 to 100% B in 2 min. 3 μL of each sample were loaded on column. MS parameters and multiple reaction monitoring (MRM) transitions were carefully tuned for each compound. Plasma levels data were analyzed using PKSolutions excel application (Summit Research Service, USA) to derive the most important pharmacokinetic parameters.
The oral bioavailability (F %) data, and the Area Under the Curve (AUC) data (ng×min/mL) corresponding to the IV (3 mg/kg) and PO (10 mg/kg) dose of selected compounds described in the Examples are reported in Table 3. Their F % data are in the range from 35 to 87.

Rat FAAH = Rat FAAH (Rattus norvegicus (Rat), UniProt P97612); test: In vitro rat FAAH radiometric assay; format: biochemical; settings: rat brain homogenate, 10 min pre-incubation at 37° C.; read-out: r-FAAH IC50
Chain of Rat FAAH (P97612 whole entry): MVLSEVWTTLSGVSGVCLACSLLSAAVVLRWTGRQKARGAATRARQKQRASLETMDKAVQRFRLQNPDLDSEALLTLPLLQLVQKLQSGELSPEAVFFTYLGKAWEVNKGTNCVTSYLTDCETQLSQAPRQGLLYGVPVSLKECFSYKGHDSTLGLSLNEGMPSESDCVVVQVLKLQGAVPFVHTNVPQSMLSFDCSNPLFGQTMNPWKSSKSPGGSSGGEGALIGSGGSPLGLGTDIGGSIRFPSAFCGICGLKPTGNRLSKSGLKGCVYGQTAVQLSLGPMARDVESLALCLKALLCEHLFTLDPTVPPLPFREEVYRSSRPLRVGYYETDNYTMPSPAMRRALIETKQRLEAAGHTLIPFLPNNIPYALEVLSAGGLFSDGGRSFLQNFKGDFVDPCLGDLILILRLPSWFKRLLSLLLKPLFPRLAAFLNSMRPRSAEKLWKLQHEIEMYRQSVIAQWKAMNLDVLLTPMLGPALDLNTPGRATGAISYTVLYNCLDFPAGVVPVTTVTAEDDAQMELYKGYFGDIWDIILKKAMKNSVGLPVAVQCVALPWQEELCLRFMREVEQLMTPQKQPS
Protocol: In Vitro Rat FAAH Radiometric Assay
Rat FAAH was prepared from male Sprague Dawley rat brains, homogenized in a potter in 20 mM of Tris HCl pH 7.4, 0.32 M sucrose.
The radiometric assay used to measure FAAH activity was performed in Eppendorf tubes: 50 μg of total rat brain homogenate were pre-incubated in 445.5 μL of assay buffer (50 mM Tris-HCl pH 7.4, 0.05% Fatty acid-free-bovine serum albumin (BSA)) with 4.5 μL of inhibitor (at appropriate concentration in DMSO) or DMSO alone (to measure FAAH total activity) for 10 min at 37° C. The blank (no activity control) was prepared using 445.5 μL of assay buffer and 4.5 μL of DMSO without the 50 μg of total rat brain homogenate.
After 10 min of pre-incubation with test compounds, the reaction was started by adding of 50 μL of substrate and incubating for 30 min at 37° C. The substrate was prepared in assay buffer in order to achieve the final concentration of 1 μM arachidonoyl ethanolamide (Cayman Chemical N. 90050) and 0.6 nM anandamide [ethanolamine-1-^3H] (American Radiolabeled Chemicals Inc, ART. 0626, Conc. 1 mCi/mL, S.A. 60 Ci/mmol). The reaction was stopped by adding cold 1:1 CHCl3/MeOH. After 10 min of centrifugation (845×g at 4° C.) 600 μL of aqueous phase were transferred into scintillation vials previously filled with 3 mL of scintillation fluid (Ultima Gold™, Perkin Elmer Inc., Cat. 6013329). Radioactivity was measured by liquid scintillation counting (MicroBeta2 LumiJET Perkin Elmer Inc.).
as §1

[2] = Aqueous kinetic solubility assay; format: physicochemical; settings: phosphate buffered saline, aqueous buffer, kinetic from dmso stock, PBS pH 7.4, target 250 μM, 2.5% DMSO, 25° C.
Protocol: Aqueous Kinetic Solubility Assay
The aqueous kinetic solubility was determined from a 10 mM DMSO stock solution of test compound in Phosphate Buffered Saline (PBS) at pH 7.4.
The study was performed by incubation of an aliquot of 10 mM DMSO stock solution in PBS (pH 7.4) at a target concentration of 250 μM resulting in a final concentration of 2.5% DMSO. The incubation was carried out under shaking at 25° C. for 24 h followed by centrifugation. The supernatant was analyzed by UPLC/MS for the quantification of dissolved compound by UV at a specific wavelength (215 nm).
The aqueous kinetic solubility (in μM) was calculated by dividing the peak area of the supernatant by the peak area of the test compound reference and further multiplied by the concentration of the test compound reference and dilution factor.
The UPLC/MS analyses were performed on a Waters ACQUITY UPLC/MS system consisting of a SQD (Single Quadrupole Detector) Mass Spectrometer equipped with an Electrospray Ionization interface and a Photodiode Array Detector. The PDA range was 210-400 nm. The analyses were run on an ACQUITY UPLC BEH C18 column (50×2.1 mmID, particle size 1.7 m) with a VanGuard BEH C18 pre-column (5×2.1 mmID, particle size 1.7 μm). The mobile phase was 10 mM NH4OAc in H2O at pH 5 adjusted with AcOH (A) and 10 mM NH4OAc in MeCN—H2O (95:5) at pH 5 (B). Electrospray ionization in positive and negative mode was applied in the mass scan range 100-500 Da.

[3] = IV, 3 mg/kg, read-out: AUC IV (3 mg/kg) (converted)
[4] = PO, 10 mg/kg, read-out: AUC PO (10 mg/kg) (converted)

Compound | IC50 (human FAAH-1) [nM] | bioavailability [1] [%] | AUC [1, 3] [ng·h/mL] | AUC [1, 4] [ng·h/mL] | IC50 (Rat FAAH) [nM] | solubility kinetic at 24 h [2] [µM]
CNC(=O)c1cccc(-c2cc(OC(=O)NC3CCCCC3)ccc2F)c1 [Example 1, [4-fluoro-3-[3-(methylcarbamoyl)phenyl]phenyl]N-cyclohexylcarbamate] | 12 | 87 | 1280 | 3700 | 1.4 | 28 (≈ 10.4 µg/mL)
NS(=O)(=O)c1cccc(-c2cc(OC(=O)NC3CCCCC3)ccc2F)c1 [Example 2, [4-fluoro-3-(3-sulfamoylphenyl)phenyl] N-cyclohexylcarbamate] | 11 | 35 | 746 | 867 | 0.7 | 28 (≈ 11 µg/mL)
NC(=O)c1cccc(-c2cc(OC(=O)NC3CCC3)ccc2F)c1 [Example 3, [3-(3-carbamoylphenyl)-4-fluoro-phenyl] N-cyclobutylcarbamate] | 1.8 | 79 | 498 | 1310 | 0.9 | 33 (≈ 10.8 µg/mL)
CNC(=O)c1cccc(-c2cc(OC(=O)NC3CCCC3)ccc2F)c1 [Example 4, [4-fluoro-3-[3-(methylcarbamoyl)phenyl]phenyl] N-cyclopentylcarbamate] | 2.9 |  |  |  | 3.9 | 96 (≈ 34.2 µg/mL)
CNC(=O)c1cccc(-c2cc(OC(=O)NC3CCC3)ccc2F)c1 [Example 6, [4-fluoro-3-[3-(methylcarbamoyl)phenyl]phenyl] N-cyclobutylcarbamate] | 6.6 |  |  |  | 5.1 | 183 (≈ 62.7 µg/mL)
NC(=O)c1cccc(-c2cc(OC(=O)NC3CCCCC3)ccc2OC(F)F)c1 [Example 8, [3-(3-carbamoylphenyl)-4-(difluoromethoxy)phenyl] N-cyclohexylcarbamate] | 8.2 | 35 | 2110 | 2430 | 1.4 | 44 (≈ 17.8 µg/mL)
CNC(=O)c1cccc(-c2cc(OC(=O)NC3CCCCC3)ccc2OC(F)F)c1 [Example 9, [4-(difluoromethoxy)-3-[3-(methylcarbamoyl)phenyl]phenyl] N-cyclohexyl carbamate] | 12 | 53 | 1390 | 2480 | 3.5 | 8 (≈ 3.35 µg/mL)
CS(=O)(=O)c1cccc(-c2cc(OC(=O)NC3CCCCC3)ccc2OC(F)F)c1 [Example 11, [4-(difluoromethoxy)-3-(3-methylsulfonylphenyl)phenyl] N-cyclohexylcarbamate] | 6.5 |  |  |  | 2.9 | 12 (≈ 5.27 µg/mL)
CNC(=O)c1cccc(-c2cccc(OC(=O)NC3CCCCC3)c2)c1 [[drawing 127] comparison compound, reference compound] |  | 30 | 1520 | 1500 |  | 18 (≈ 6.34 µg/mL)
NS(=O)(=O)c1cccc(-c2cccc(OC(=O)NC3CCCCC3)c2)c1 [[drawing 129] comparison compound, reference compound] |  | 21 | 725 | 502 |  | 7 (≈ 2.62 µg/mL)
NC(=O)c1cccc(-c2cccc(OC(=O)NC3CCC3)c2)c1 [[drawing 131] comparison compound, reference compound] |  | 39 | 891 | 1160 |  | 6 (≈ 1.86 µg/mL)
NC(=O)c1cccc(-c2cccc(OC(=O)NC3CCCCC3)c2)c1 [[drawing 135] comparison compound, reference compound] |  | 5 | 2560 | 446 |  | 1 (≈ 0.338 µg/mL)
